Measured values from US8008487B2, “Substituted thieno[2,3-D]pyrimidines as fungicides” (priority 2004, dated 2011).

What was measured:
Format in all cases: in vivo
Septoria tritici = assay: Speckled Leaf Blotch of Wheat (SEPTTR), whole-plant fungicide test; settings: Zymoseptoria tritici, 24 h, one-day protectant test, read-out: SEPTTR percent control of disease; for pest or weed control at 75 ppm: 75 ppm (footnote d)
Phytophthora infestans = assay: whole plant or invertebrate; settings: Phytophthora infestans, in Solanum lycopersicum, foliar, 24 h, read-out: PHYTIN percent control of disease, 200 ppm on foliage, tomato, one-day protectant test
Leptosphaeria nodorum = assay: Glume Blotch of Wheat (LEPTNO), whole-plant fungicide test; settings: Parastagonospora nodorum, foliar, 24 h, 200 ppm on foliage, one-day protectant test, read-out: LEPTNO percent control of disease
[1] = tested on: Puccinia recondita tritici; assay: Leaf Rust of Wheat (PUCCRT), whole-plant fungicide test; settings: Puccinia recondita, foliar, 24 h, 200 ppm on foliage, one-day protectant test, read-out: PUCCRT percent control of disease
Magnaporthe grisea = assay: whole plant or invertebrate; settings: Pyricularia oryzae, in Oryza sativa, 24 h; for pest or weed control at 200 ppm: foliar, read-out: PYRIOR percent control of disease, 200 ppm on foliage, rice, one-day protectant test
Erysiphe cichoracaerum = assay: Cucumber Powdery Mildew (ERYSCI), whole-plant fungicide test; settings: Erysiphe, foliar, 24 h, 200 ppm on foliage, one-day protectant test, read-out: ERYSCI percent control of disease
Colletotricum lagenarium = assay: Cucumber Anthracnose (COLLLA), whole-plant fungicide test; settings: Cucumis sativus, foliar, 24 h, 200 ppm on foliage, one-day protectant test, read-out: COLLLA percent control of disease
Cochliobolus sativus = assay: Spot Blotch of Wheat (COCHSA), whole-plant fungicide test; settings: Bipolaris sorokiniana, foliar, 24 h, 200 ppm on foliage, one-day protectant test, read-out: COCHSA percent control of disease
Protocol: The activity of the compounds as effective fungicides was determined by applying the compounds to plants and observing control of fungal disease. The compounds were formulated at 200 ppm in 10 vol. percent acetone plus 90 vol. percent Triton X water (deionized water 99.99 wt. percent+0.01 wt. percent Triton X100), giving a “formulated test compound.” In a few cases, compounds were formulated at 100, 75 or 8.3 ppm rather than 200 ppm in 10 vol. percent acetone plus 90 vol. percent Triton X water (deionized water 99.99 wt. percent+0.01 wt. percent Triton X100), giving a ‘formulated test compound’. The compounds were tested for ability to control plant diseases in a 1-day protectant test (1DP) or a 2-day curative test (2DC). Formulated test compounds were applied to plants using a turn table sprayer fitted with two opposing air atomization nozzles which delivered approximately 1500 L/ha of spray volume. Plants were inoculated with spores of the fungus the next day (1DP), then incubated in an environment conducive to disease development. In a few cases, the compounds were tested for ability to control plant disease in a two-day curative test. Plants were inoculated with spores of the fungus two days prior to compound application, and incubated in an environment conducive to disease development both before and after compound application (2DC). For all types of tests, disease severity was evaluated 4 to 28 days later, depending on the speed of disease development.
Each pot contained 3-8 seedlings. These plants were sprayed until wet with the formulated test compound. On the following day, the leaves were inoculated with an aqueous spore suspension of Cochliobolus sativus and the plants were kept in high humidity for one to two days to permit spores to germinate and infect the leaf. The plants were then transferred to a greenhouse until disease developed on untreated control plants.
The following table presents the activity of typical compounds of the present invention when evaluated in these experiments. The effectiveness of the test compounds in controlling disease was determined by assessing the severity of disease on treated plants, then converting the severity to percent control based on the level of disease on untreated, inoculated plants.
TABLE 4: Activity of compounds as fungicides. Data are the level at which the given disease was controlled when the given compound was applied to the foliage of the plant at 200 ppm. In a few cases (noted in the table) the compound was applied to the plant at 100, 75 or 8.3 ppm. The plant was inoculated with the fungus one day after treatment. In a few cases (noted in the table) the plant was inoculated with the fungus two days before treatment.

| SMILES | pest or weed control at 100 ppm (Septoria tritici; 100 ppm (footnote a)) | pest or weed control at 200 ppm (Phytophthora infestans) | pest or weed control at 200 ppm (Leptosphaeria nodorum) | pest or weed control at 200 ppm [1] | pest or weed control at 200 ppm (Magnaporthe grisea) | pest or weed control at 200 ppm (Erysiphe cichoracaerum) | pest or weed control at 200 ppm (Colletotricum lagenarium) | pest or weed control at 75 ppm (Septoria tritici) | pest or weed control at 8.3 ppm (Magnaporthe grisea; read-out: PYRIOR percent control of disease, 8.3 ppm (footnote c), rice, one-day protectant test) | pest or weed control at 200 ppm (Cochliobolus sativus) |
| --- | --- | --- | --- | --- | --- | --- | --- | --- | --- | --- |
| FC(F)(F)COc1ccc(CCNc2ncnc3scc(Cl)c23)cn1 [Compound 5a] | 80 to 100% | 80 to 100% | 80 to 100% | 80 to 100% | 80 to 100% | 80 to 100% | 50 to 79% |  |  |  |
| CC(=O)COc1ccc(CCNc2ncnc3scc(Cl)c23)cc1 [Compound 6a] |  | 80 to 100% | 50 to 79% | 80 to 100% | 80 to 100% | 0 to 49% | 50 to 79% | 0 to 49% |  |  |
| O=C(Oc1ccc(CCNc2ncnc3scc(Cl)c23)cc1)C1(F)C(F)(F)C(F)(F)C(F)(F)C(F)(F)C1(F)F [Compound 9a, 1,2,2,3,3,4,4,5,5,6,6-undecafluoroclohexanecarboxylic Acid 4-[2-(5-chlorothieno[2,3-d]pyrimidin-4-ylamino)ethyl]phenyl Ester] |  | 0 to 49% | 0 to 49% | 80 to 100% | 80 to 100% | 0 to 49% | 0 to 49% | 80 to 100% |  |  |
| CC(C)(C)OC(=O)Nc1ccc(CCNc2ncnc3scc(Cl)c23)cc1 [Compound 10a, {4-[2-(5-chlorothieno[2,3-d]pyrimidin-4-ylamino)ethyl]phenyl}carbamic Acid t-butyl Ester] |  |  | 0 to 49% | 0 to 49% |  | 0 to 49% | 0 to 49% | 80 to 100% | 80 to 100% |  |
| CC(Nc1ncnc2scc(Cl)c12)c1ccc(F)nc1 (stereo not drawn) [Compound 40] |  |  | 50 to 79% | 80 to 100% |  |  |  |  |  | 50 to 79% |
| CCOc1csc2ncnc(N[C@@H](C)c3ccc(OC)cc3)c12 [Compound 43] |  | 0 to 49% | 0 to 49% | 50 to 79% | 50 to 79% |  | 0 to 49% |  |  | 0 to 49% |
| CCOc1csc2ncnc(NC(C)c3ccc(OC)nc3)c12 (stereo not drawn) [Compound 46] |  | 0 to 49% | 50 to 79% | 80 to 100% | 80 to 100% | 50 to 79% | 0 to 49% |  |  | 0 to 49% |
| COc1ccc(C(C)Nc2ncnc3sc([N+](=O)[O-])cc23)cc1 (stereo not drawn) [Compound 47, [1-(4-Methoxyphenyl)ethyl]-(6-nitrothieno[2,3-d]pyrimidin-4-yl)amine] |  | 0 to 49% | 50 to 79% | 80 to 100% | 80 to 100% | 0 to 49% | 0 to 49% |  |  | 0 to 49% |
| COc1ccc(C(C)Nc2ncnc3sc(Br)cc23)cc1 (stereo not drawn) [Compound 48, (6-Bromothieno[2,3-d]pyrimidin-4-yl)-[1-(4-methoxyphenyl)ethyl]amine] |  | 0 to 49% | 0 to 49% | 0 to 49% | 0 to 49% | 0 to 49% | 0 to 49% |  |  | 80 to 100% |
